Assay results as given in DBAASP.
Values after ≈ are worked out from the molar mass of the structure shown. Values joined by “and” are separate entries in the source; they are usually repeats but may differ in a detail not shown here. Equal values may be shown once. Each block holds one compound with its values, some of them ahead of it.

Assays:
Test in all cases: ≥ marks a high value that may be exact or a test limit, other limits are often not marked, values filed in µg/mL are converted to µM
Trypanosoma cruzi = test system: Trypanosoma cruzi
Enterococcus faecalis = test system: Enterococcus faecalis
[1] = test system: Staphylococcus aureus ATCC 29213
[2] = test system: Staphylococcus aureus Cowan 1
[3] = test system: Escherichia coli ATCC 25922
Staphylococcus capitis 1 = test system: Staphylococcus capitis 1
[4] = test system: Staphylococcus epidermidis ATCC 12228
Acinetobacter baumannii = test system: Acinetobacter baumannii
[5] = test system: Acinetobacter baumannii ATCC 19606
Escherichia coli O111:B4 = test system: Escherichia coli O111:B4
[6] = test system: Pseudomonas aeruginosa ATCC 27853
[7] = test system: Yersinia pseudotuberculosis YPIII
Escherichia coli D21 = test system: Escherichia coli D21
[8] = test system: Corynebacterium jeikeium ATCC BAA-949
Bacillus megaterium Bm11 = test system: Bacillus megaterium Bm11
Candida albicans = test system: Candida albicans
Klebsiella pneumoniae = test system: Klebsiella pneumoniae
Candida parapsilosis = test system: Candida parapsilosis
[9] = test system: Staphylococcus aureus ATCC 25923
Rhodotorula mucilaginosa = test system: Rhodotorula mucilaginosa
Escherichia coli ML-35 = test system: Escherichia coli ML-35
[10] = test system: Salmonella enterica subsp. enterica serovar Enteritidis
Streptococcus equinus = test system: Streptococcus equinus
Candida tropicalis = test system: Candida tropicalis
[11] = test system: Klebsiella pneumoniae ATCC 13883
[12] = test system: Salmonella enterica subsp. enterica serovar Typhimurium ATCC 14028
[13] = test system: Serratia marcescens ATCC 8100
Staphylococcus aureus = test system: Staphylococcus aureus
[14] = test system: Staphylococcus saprophyticus
[15] = test system: Bacillus subtilis KACC 10196
[16] = test system: Staphylococcus aureus USA 100
[17] = test system: Staphylococcus aureus ATCC 6535
[18] = test system: Pseudomonas aeruginosa KACC 10259
[19] = test system: Bacillus subtilis CCT 2471
[20] = test system: Escherichia coli KACC 1039
[21] = test system: Klebsiella pneumoniae KCTC 2242
[22] = test system: Pseudomonas aeruginosa ATCC 9027
[23] = test system: Candida albicans ATCC 90028
[24] = test system: Staphylococcus aureus KACC 10196
[25] = test system: Candida albicans KACC 30071
[26] = test system: Enterococcus faecalis KACC 11304
[27] = test system: Staphylococcus aureus USA 300
[28] = test system: Enterobacter cloacae ATCC 23355
[29] = test system: Escherichia coli CCT 1371
[30] = test system: Bacillus subtilis DSM 402
[31] = test system: Escherichia coli DSM 30083
[32] = test system: Escherichia coli KCCM 11569
[33] = test system: Bacillus subtilis KCCM 11495

Compound: CC[C@H](C)[C@H](N)C(=O)N[C@H](C(=O)NCC(=O)N1CCC[C@H]1C(=O)N[C@H](C(=O)N[C@@H](CC(C)C)C(=O)NCC(=O)N[C@@H](CC(C)C)C(=O)N[C@H](C(=O)NCC(=O)N[C@@H](CO)C(=O)N[C@@H](C)C(=O)N[C@@H](CC(C)C)C(=O)NCC(=O)NCC(=O)N[C@@H](CC(C)C)C(=O)N[C@@H](CC(C)C)C(=O)N[C@@H](CCCCN)C(=O)N[C@@H](CCCCN)C(=O)N[C@H](C(N)=O)[C@@H](C)CC)C(C)C)C(C)C)[C@@H](C)CC [IIGPVLGLVGSALGGLLKKI]
MIC (Enterococcus faecalis): ≥ 50 µM
MIC [1]: 12.5 µM (≈ 24 µg/mL)
MIC [2]: 12.5 µM (≈ 24 µg/mL)
MIC [3]: > 50 µM
MIC (Staphylococcus capitis 1): 12.5 µM (≈ 24 µg/mL)
MIC [4]: 12.5 µM (≈ 24 µg/mL)
MIC (Acinetobacter baumannii): ≥ 50 µM
MIC [5]: 12.5 µM (≈ 24 µg/mL)
MIC (Escherichia coli O111:B4): ≥ 50 µM
MIC [6]: > 50 µM
MIC [7]: 12.5 µM (≈ 24 µg/mL)
MIC (Escherichia coli D21): ≥ 50 µM
MIC [8]: 8 µM (≈ 15.3 µg/mL)

Compound: CC(C)C[C@H](NC(=O)[C@H](CCC(N)=O)NC(=O)[C@H](CCC(=O)O)NC(=O)[C@H](CC(C)C)NC(=O)[C@H](Cc1ccccc1)NC(=O)[C@H](CCC(=O)O)NC(=O)[C@H](CCC(N)=O)NC(=O)[C@H](Cc1ccccc1)NC(=O)[C@H](CO)NC(=O)[C@H](CC(C)C)NC(=O)[C@@H]1CCCN1C(=O)[C@H](Cc1ccccc1)NC(=O)[C@H](Cc1c[nH]c2ccccc12)NC(=O)[C@H](Cc1cnc[nH]1)NC(=O)[C@H](CCCN=C(N)N)NC(=O)[C@H](CCCN=C(N)N)NC(=O)[C@@H](N)CCCCN)C(=O)N[C@@H](CCCN=C(N)N)C(=O)N[C@@H](CCCN=C(N)N)C(=O)N[C@@H](Cc1ccccc1)C(=O)N[C@@H](CCCN=C(N)N)C(=O)N[C@@H](CC(=O)O)C(=O)N[C@@H](CCC(N)=O)C(=O)N[C@@H](CC(C)C)C(=O)N1CCC[C@H]1C(=O)N[C@@H](Cc1ccccc1)C(=O)N1CCC[C@H]1C(=O)O [KRRHWFPLSFQEFLEQLRRFRDQLPFP]
MIC (Bacillus megaterium Bm11): 3.92 µM (≈ 14 µg/mL)
MIC (Candida albicans): > 31.9 µM
MIC [3]: 3.92 µM (≈ 14 µg/mL)
MIC (Klebsiella pneumoniae): 31.9 µM (≈ 114 µg/mL)
MIC [4]: 7.97 µM (≈ 28.5 µg/mL)
MIC (Candida parapsilosis): 31.9 µM (≈ 114 µg/mL)
MIC [9]: 15.9 µM (≈ 57 µg/mL)
MIC (Rhodotorula mucilaginosa): 31.9 µM and 15.9 µM
MIC (Escherichia coli ML-35): 3.92 µM (≈ 14 µg/mL)
MIC [10]: 31.9 µM (≈ 114 µg/mL)
MIC (Streptococcus equinus): 31.9 µM (≈ 114 µg/mL)
MIC (Candida tropicalis): 31.9 µM (≈ 114 µg/mL)
MIC [11]: 7.97 µM (≈ 28.5 µg/mL)
MIC [6]: > 31.9 µM
MIC [12]: 31.9 µM (≈ 114 µg/mL)
MIC [13]: 7.97 µM (≈ 28.5 µg/mL)
MIC (Staphylococcus aureus): 31.9 µM (≈ 114 µg/mL)

Compound: CC[C@H](C)[C@H](NC(=O)[C@H](CO)NC(=O)[C@@H](NC(=O)[C@H](CCCCN)NC(=O)[C@H](Cc1ccccc1)NC(=O)[C@@H]1CCCN1)[C@@H](C)CC)C(=O)N[C@@H](Cc1cnc[nH]1)C(=O)N[C@@H](CC(C)C)C(N)=O [PFKISIHL]
MIC [14]: 15.7 µM (≈ 15 µg/mL)
MIC [15]: 4 µM (≈ 3.81 µg/mL)
MIC (Candida albicans): 2.62 µM (≈ 2.5 µg/mL)
MIC [16]: ≥ 50 µM
MIC [17]: 10.5 µM (≈ 9.99 µg/mL)
MIC [18]: 8 µM (≈ 7.63 µg/mL)
MIC [19]: 10.5 µM (≈ 9.99 µg/mL)
MIC [20]: 8 µM (≈ 7.63 µg/mL)
MIC [21]: 8 µM (≈ 7.63 µg/mL)
MIC [22]: 50 µM (≈ 47.7 µg/mL)
MIC [11]: 10.5 µM (≈ 9.99 µg/mL)
MIC [23]: ≥ 50 µM
MIC [24]: 16 µM (≈ 15.3 µg/mL)
MIC [6]: 10.5 µM (≈ 9.99 µg/mL)
MIC [25]: 16 µM (≈ 15.3 µg/mL)
MIC [26]: 16 µM (≈ 15.3 µg/mL)
MIC [27]: ≥ 50 µM
MIC [28]: 10.5 µM (≈ 9.99 µg/mL)
MIC [29]: 2.62 µM (≈ 2.5 µg/mL)

Compound: CC(=O)N[C@@H](CCCN=C(N)N)C(=O)N[C@@H](Cc1c[nH]c2ccccc12)C(=O)N[C@@H](CCCN=C(N)N)C(=O)N[C@@H](Cc1c[nH]c2ccccc12)C(=O)N[C@@H](CCCN=C(N)N)C(=O)N[C@@H](Cc1c[nH]c2ccccc12)C(N)=O [RWRWRW]
MIC [30]: ≥ 45 µM
MIC [31]: ≥ 45 µM

Next, values leading:

MIC (Trypanosoma cruzi): 14.2 µM (≈ 30 µg/mL)
Compound: CC[C@H](C)[C@H](NC(=O)[C@H](C)NC(=O)[C@H](Cc1cnc[nH]1)NC(=O)[C@@H]1CCCN1C(=O)[C@@H](NC(=O)[C@H](CC(C)C)NC(=O)[C@H](CO)NC(=O)[C@H](CC(C)C)NC(=O)[C@@H](N)Cc1ccccc1)[C@@H](C)CC)C(=O)N[C@@H](CC(N)=O)C(=O)N[C@@H](C)C(=O)N[C@H](C(=O)N[C@@H](CO)C(=O)N[C@H](C(=O)N[C@@H](CC(C)C)C(=O)N[C@H](C(=O)N[C@@H](Cc1cnc[nH]1)C(=O)N[C@@H](Cc1cnc[nH]1)C(=O)N[C@@H](CO)C(=O)NCC(N)=O)C(C)C)[C@@H](C)O)C(C)C [FLSLIPHAINAVSTLVHHSG]

MIC [32]: ≥ 40.3 µM
MIC [33]: ≥ 40.3 µM
Compound: CC(C)C[C@H](NC(=O)CNC(=O)[C@H](Cc1cnc[nH]1)NC(=O)[C@H](Cc1cnc[nH]1)NC(=O)[C@H](CC(C)C)NC(=O)[C@H](CC(C)C)NC(=O)[C@H](C)NC(=O)[C@H](CC(N)=O)NC(=O)[C@H](CC(C)C)NC(=O)[C@@H](N)Cc1c[nH]c2ccccc12)C(=O)N[C@@H](CC(N)=O)C(=O)N[C@@H](CS)C(=O)N[C@@H](C)C(=O)N[C@@H](CCCCN)C(N)=O [WLNALLHHGLNCAK]
